According to patent publication US20120053165A1, “Novel Phenyl Imidazoles and Phenyl Triazoles As Gamma-Secretase Modulators” (Pfizer Inc., priority 2009, published 2012):
Structures can show the parent of a compound that is named as a salt. Where two headings read alike, the source gives them in different places.

Test system: production of amyloid beta protein Aβ(1-42) in human WT-APP overexpressing CHO cells
Details: human WT-APP overexpressing CHO cells
[1] = Homo sapiens, CHO, read-out: Aβ 42 IC50, Geometric mean of 2-8 determinations
[2] = Homo sapiens, CHO, read-out: Aβ 42 IC50, Geometric mean of at least 2 determinations
[3] = read-out: Aβ 42 IC50, Geometric mean of 2-8 determinations
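Note: Aβ(1-42) released into conditioned medium captured by ELISA after roughly 24 h compound exposure, vehicle and inhibitor controls defining maximal and minimal inhibition.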

Description: Cell-Based γ-Secretase Assay with ELISA Readout
The ability of compounds to modulate production of amyloid beta protein Aβ(1-42) was determined using human WT-APP overexpressing CHO cells. Cells were plated at 22,000 cells/100 μL well in 96 well tissue culture treated, clear plates (Falcon) in DMEM/F12 based medium and incubated for 24 hours at 37° C. […] Compounds were added in fresh medium to achieve 1% final DMSO. Appropriate vehicle and inhibitor controls were added to obtain maximum and minimum inhibition values for the assay before the plates were incubated for about 24 hours at 37° C.
Coating of ELISA assay plates was initiated by addition of 50 μL/well of an in house Aβ(1-42) specific antibody at (4 μg/mL) in 0.1 M NaHCO3 (pH 9.0) into black 384-well Maxisorp® plates (Nunc) and incubated overnight at 4° C. […] Ambient temperature incubation was allowed to proceed for a minimum of two hours before washing 2×100 μL with Wash Buffer (Dulbecco's PBS, 0.05% Tween 20). Assay Buffer (Dulbecco's PBS, 1.0% BSA (Sigma A7030), 0.05% Tween 20) 20 μL/well is then added.
After incubation overnight at 37° C., 5% CO2, 40 μL (in duplicate) of experimental conditioned media are transferred into wells of the blocked ELISA plates containing the capture antibody, followed by overnight incubation at 4° C.
After overnight incubation of the ELISA assay plates at 4° C., unbound Aβ peptides were removed thorough (4×100 μL) washes with Wash Buffer.

## COc1cc(C(=O)N2CCC(COc3ccccc3C(F)(F)F)C2)ccc1-n1cnc(C)c1 (centres unmarked) [Example 132, 1-{2-methoxy-4-[(3-{[2-(tri-fluoromethyl)phenoxy]methyl}pyrrolidin-1-yl)carbonyl]phenyl}-4-methyl-1H-imidazole]
[1]
  IC50: 472 nM

## COc1cc(C(=O)N2CC(COc3cccc(C(F)(F)F)c3)C2)ccc1-n1cnc(C)c1 [Example 133, 1-{2-methoxy-4-[(3-{[3-(trifluoromethyl)phenoxy]methyl}azetidin-1-yl)carbonyl]phenyl}-4-methyl-1H-imidazole]
[1]
  IC50: 496 nM

## COc1cc(C(=O)N2CCCC2COc2ccccc2C(F)(F)F)ccc1-n1cnc(C)c1 (centres unmarked) [Example 134, 1-{2-methoxy-4-[(2-{[2-(tri-fluoromethyl)phenoxy]methyl}pyrrolidin-1-yl)carbonyl]phenyl}-4-methyl-1H-imidazole]
[1]
  IC50: 675 nM

## COc1cc(C(=O)N2CC(COc3cccc4ccccc34)C2)ccc1-n1cnc(C)c1 [Example 135, 1-[2-methoxy-4-({3-[(1-naphthyloxy)methyl]azetidin-1-yl}carbonyl)phenyl]-4-methyl-1H-imidazole trifluoroacetate salt]
[2]
  IC50: 111 nM

## COc1cc(C(=O)N2CC(COc3ccc(F)c(C)c3Cl)C2)ccc1-n1cnc(C)c1 [Example 136, 1-[4-({3-[(2-chloro-4-fluoro-3-methyl-phenoxy)methyl]azetidin-1-yl}carbonyl)-2-methoxyphenyl]-4-methyl-1H-imidazole trifluoroacetate salt]
[2]
  IC50: 311 nM

## COc1cc(C(=O)N2CC(COc3cccc4c3CCC4)C2)ccc1-n1cnc(C)c1 [Example 137, 1-[4-({3-[(2,3-dihydro-1H-inden-4-yloxy)methyl]azetidin-1-yl}carbonyl)-2-methoxyphenyl]-4-methyl-1H-imidazole trifluoroacetate salt]
[2]
  IC50: 411 nM

## CCc1cc(F)ccc1OCC1CN(C(=O)c2ccc(-n3cnc(C)c3)c(OC)c2)C1 [Example 138, 1-[4-({3-[(2-ethyl-4-fluorophenoxy)methyl]azetidin-1-yl}carbonyl)-2-methoxyphenyl]-4-methyl-1H-imidazole trifluoroacetate salt]
[2]
  IC50: 537 nM

## CCc1ccccc1OCC1CN(C(=O)c2ccc(-n3cnc(C)c3)c(OC)c2)C1 [Example 140, 1-[4-({3-[(2-ethylphenoxy)methyl]azetidin-1-yl}carbonyl)-2-methoxyphenyl]-4-methyl-1H-imidazole trifluoroacetate salt]
[2]
  IC50: 593 nM

## N-[2-(4-fluoro- phenyl)-1,1- dimethylethyl]- 3-methoxy-4- (4-methyl-1H- imidazol-1-yl) benzamide [Example 37]
[3]
  IC50: 519 nM

## N-[3-(3- chlorophenyl) propyl]-3- methoxy-4-(4- methyl-1H- imidazol-1-yl) benzamide [Example 46]
[3]
  IC50: 579 nM

## N-{[3-(3- chlorophenyl)- 4,5-dihydro- isoxazol-5-yl] methyl}-3- methoxy-4- (4-methyl-1H- imidazol-1-yl) benzamide [Example 12]
[3]
  IC50: 1310 nM
